Assay results as given in patent publication US20230079819A1, “COMPOUNDS AND USES THEREOF” (Foghorn Therapeutics Inc., priority 2019, published 2023).
Like-named read-outs stand apart in the source and are kept apart here.

Legend:
BRG-1 = target: T1, BRG-1 (Homo sapiens, UniProt P51532); assay: ATPase catalytic activity of BRG-1, ADP-Glo in vitro biochemical assay; conditions: 30 nM BRG-1, 400 μM ATP
T1 construct: made in house; host or cells: High Five insect cells

BRM = target: T2, BRM (Homo sapiens, UniProt P51531); assay: ATPase catalytic activity of BRM, ADP-Glo in vitro biochemical assay; conditions: 30 nM BRM, 400 μM ATP
T2 construct: made in house; host or cells: High Five insect cells

[1] = ATPase catalytic activity, read-out: BRG1 IP50
[2] = ATPase catalytic activity, read-out: BRM IP50
[3] = ATPase catalytic activity, read-out: BRG1 IP50 (μM)*
[4] = ATPase catalytic activity, read-out: BRM IP50 (μM)*

T2 sequence (P51531 whole entry): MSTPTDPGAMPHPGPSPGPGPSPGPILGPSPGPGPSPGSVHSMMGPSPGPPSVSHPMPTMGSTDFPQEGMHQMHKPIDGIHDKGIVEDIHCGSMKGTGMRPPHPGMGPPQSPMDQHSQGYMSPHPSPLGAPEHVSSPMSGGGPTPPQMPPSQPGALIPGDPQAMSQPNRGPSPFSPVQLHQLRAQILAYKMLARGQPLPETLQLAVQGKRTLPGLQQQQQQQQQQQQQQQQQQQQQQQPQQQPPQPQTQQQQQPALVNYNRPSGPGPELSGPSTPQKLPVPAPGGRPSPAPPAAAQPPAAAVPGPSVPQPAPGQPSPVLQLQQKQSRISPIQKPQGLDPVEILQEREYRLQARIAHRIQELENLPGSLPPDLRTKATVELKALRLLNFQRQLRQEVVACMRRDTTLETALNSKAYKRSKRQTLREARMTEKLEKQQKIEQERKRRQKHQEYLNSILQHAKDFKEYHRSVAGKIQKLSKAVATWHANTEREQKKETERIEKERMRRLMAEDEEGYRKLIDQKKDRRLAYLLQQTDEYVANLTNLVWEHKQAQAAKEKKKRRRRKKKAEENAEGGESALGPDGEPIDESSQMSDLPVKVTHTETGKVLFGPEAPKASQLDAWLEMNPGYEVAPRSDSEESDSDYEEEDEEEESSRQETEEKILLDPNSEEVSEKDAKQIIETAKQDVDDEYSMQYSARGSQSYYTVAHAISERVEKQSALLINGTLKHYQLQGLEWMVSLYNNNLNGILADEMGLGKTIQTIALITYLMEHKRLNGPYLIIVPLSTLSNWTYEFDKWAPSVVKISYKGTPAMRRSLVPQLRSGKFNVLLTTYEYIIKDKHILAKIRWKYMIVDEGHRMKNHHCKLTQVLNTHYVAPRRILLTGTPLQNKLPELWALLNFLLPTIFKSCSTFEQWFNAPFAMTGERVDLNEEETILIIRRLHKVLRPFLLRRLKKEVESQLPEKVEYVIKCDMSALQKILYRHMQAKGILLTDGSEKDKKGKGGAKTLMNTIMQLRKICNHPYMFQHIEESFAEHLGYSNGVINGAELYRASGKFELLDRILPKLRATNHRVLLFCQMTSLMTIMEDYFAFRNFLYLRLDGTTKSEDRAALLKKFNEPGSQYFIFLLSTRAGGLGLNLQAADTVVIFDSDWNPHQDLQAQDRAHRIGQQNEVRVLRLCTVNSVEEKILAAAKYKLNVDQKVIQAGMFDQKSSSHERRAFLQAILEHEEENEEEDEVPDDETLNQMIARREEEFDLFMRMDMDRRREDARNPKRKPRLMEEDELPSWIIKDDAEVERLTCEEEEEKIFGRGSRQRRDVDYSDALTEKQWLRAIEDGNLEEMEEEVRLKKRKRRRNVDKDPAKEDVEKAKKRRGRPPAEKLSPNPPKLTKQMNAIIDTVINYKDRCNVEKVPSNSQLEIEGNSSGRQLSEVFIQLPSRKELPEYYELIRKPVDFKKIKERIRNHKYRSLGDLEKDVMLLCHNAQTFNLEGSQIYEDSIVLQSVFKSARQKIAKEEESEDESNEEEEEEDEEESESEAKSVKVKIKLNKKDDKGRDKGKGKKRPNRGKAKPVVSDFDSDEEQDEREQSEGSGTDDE
T1 sequence (P51532 whole entry): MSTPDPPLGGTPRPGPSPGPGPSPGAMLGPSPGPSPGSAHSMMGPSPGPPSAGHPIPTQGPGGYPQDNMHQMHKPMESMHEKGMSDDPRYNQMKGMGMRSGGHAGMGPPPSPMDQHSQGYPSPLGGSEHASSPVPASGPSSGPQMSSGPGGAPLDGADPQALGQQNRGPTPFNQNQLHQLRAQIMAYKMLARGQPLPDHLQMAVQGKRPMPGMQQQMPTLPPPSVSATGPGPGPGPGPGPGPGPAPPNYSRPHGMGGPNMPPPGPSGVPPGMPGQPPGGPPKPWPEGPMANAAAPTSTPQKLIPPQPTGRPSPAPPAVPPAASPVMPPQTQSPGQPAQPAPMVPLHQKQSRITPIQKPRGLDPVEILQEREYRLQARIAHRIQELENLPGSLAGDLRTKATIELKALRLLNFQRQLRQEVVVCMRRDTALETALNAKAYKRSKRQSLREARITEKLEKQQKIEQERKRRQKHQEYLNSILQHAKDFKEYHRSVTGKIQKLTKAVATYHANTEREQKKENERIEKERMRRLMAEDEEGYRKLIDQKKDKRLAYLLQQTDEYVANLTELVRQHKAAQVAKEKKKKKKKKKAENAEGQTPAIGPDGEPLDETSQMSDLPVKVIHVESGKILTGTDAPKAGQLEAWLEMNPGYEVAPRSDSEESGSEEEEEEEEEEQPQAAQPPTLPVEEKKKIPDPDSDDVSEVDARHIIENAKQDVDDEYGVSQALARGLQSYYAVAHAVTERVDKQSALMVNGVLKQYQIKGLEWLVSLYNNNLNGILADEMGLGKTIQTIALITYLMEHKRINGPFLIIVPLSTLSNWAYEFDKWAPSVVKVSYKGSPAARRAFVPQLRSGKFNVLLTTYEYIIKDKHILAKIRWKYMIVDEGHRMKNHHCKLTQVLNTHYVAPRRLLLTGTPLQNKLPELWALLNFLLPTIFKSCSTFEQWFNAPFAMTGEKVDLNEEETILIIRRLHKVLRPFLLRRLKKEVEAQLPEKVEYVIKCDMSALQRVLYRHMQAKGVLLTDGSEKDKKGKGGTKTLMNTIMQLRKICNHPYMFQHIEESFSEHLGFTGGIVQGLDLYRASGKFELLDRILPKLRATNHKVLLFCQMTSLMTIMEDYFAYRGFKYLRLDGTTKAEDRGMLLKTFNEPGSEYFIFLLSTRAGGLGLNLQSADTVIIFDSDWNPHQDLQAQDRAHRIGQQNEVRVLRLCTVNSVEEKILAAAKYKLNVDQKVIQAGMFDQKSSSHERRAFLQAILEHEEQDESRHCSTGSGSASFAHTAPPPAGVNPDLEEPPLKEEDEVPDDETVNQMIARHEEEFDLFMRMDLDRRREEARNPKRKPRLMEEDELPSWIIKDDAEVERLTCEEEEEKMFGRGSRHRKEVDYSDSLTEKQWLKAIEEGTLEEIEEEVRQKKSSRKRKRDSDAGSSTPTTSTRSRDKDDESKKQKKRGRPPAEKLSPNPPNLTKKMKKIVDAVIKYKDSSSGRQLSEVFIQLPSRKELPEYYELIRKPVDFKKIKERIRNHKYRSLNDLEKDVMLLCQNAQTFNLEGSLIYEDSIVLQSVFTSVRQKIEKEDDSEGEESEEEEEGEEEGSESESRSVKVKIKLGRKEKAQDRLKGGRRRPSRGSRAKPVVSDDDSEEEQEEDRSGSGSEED

Row | SMILES | IC50 (BRG-1; [1]) | IC50 (BRM; [2]) | IC50 (BRG-1; [3]) | IC50 (BRM; [4]) | further results
1 | CNC(=O)C1(c2cc(-c3cccc(-c4csc(NC(=O)CNC(=O)c5ccn(S(C)(=O)=O)c5)n4)c3)ccn2)CC1 [Compound 435] | < 0.01 µM | < 0.01 µM | – | – | –
2 | COCCS(=O)(=O)n1ccc(C(=O)NCC(=O)Nc2nc(-c3cccc(N4C[C@@H](C)O[C@@H](C)C4)c3)cs2)c1 [Compound 193] | – | – | > 0.01 µM | > 0.01 µM | –
3 | CS(=O)(=O)n1ccc(C(=O)NCC(=O)Nc2nc(-c3cccc(N4CC5(CCCOC5)C4)c3)cs2)c1 [Compound 171] | – | – | > 0.1 µM | > 0.1 µM | –
4 | CS(=O)(=O)n1ccc(C(=O)NCC(=O)Nc2nc(-c3cccc(N4CCCCC4)c3)cs2)c1 [Compound 242] | – | – | > 0.01 µM | > 0.01 µM | –
5 | CC(C)(C)n1ccc(C(=O)NCC(=O)Nc2nc(-c3cccc(N4CC5CN(c6ccncc6)CC5C4)n3)cs2)c1 (stereo not drawn) [Compound 660] | > 0.1 µM | > 0.1 µM | – | – | –
6 | CC(C)(C)n1ccc(C(=O)NCC(=O)Nc2nc(-c3cccc(N4CCC4)c3)cs2)c1 [Compound 186] | – | – | > 0.01 µM | > 0.01 µM | –
7 | N#CC1(n2ccc(C(=O)NCC(=O)Nc3nc(-c4cccc(OC(F)F)n4)cs3)c2)CC1 [Compound 522] | > 0.1 µM | > 0.1 µM | – | – | –
8 | CS(=O)(=O)n1ccc(C(=O)NCC(=O)Nc2nc(-c3cccc(OC4CCC4)c3F)cs2)c1 [Compound 507] | > 0.01 µM | > 0.01 µM | – | – | –
9 | C[C@@H]1CN(c2cccc(-c3csc(NC(=O)CNC(=O)c4cn(C5(C#N)CC5)cn4)n3)n2)C[C@H](C)O1 [Compound 781] | > 0.1 µM | > 0.01 µM | – | – | –
10 | CN1CCOc2ccc(-c3csc(NC(=O)CNC(=O)c4ccn(C5(C#N)CC5)n4)n3)cc21 [Compound 811] | – | – | – | – | IC50 (BRG-1; read-out: BRG1 IP50): > 0.1 µM; IC50 (BRM; read-out: BRM IP50): > 0.01 µM
11 | C[C@@H]1CN(c2cc(-c3csc(NC(=O)CNC(=O)c4ccn(C(C)(C)C)c4)n3)ccn2)C[C@H](C)O1 [Compound 299] | – | – | > 0.01 µM | < 0.01 µM | –
12 | C[C@@H]1CN(c2cccc(-c3csc(NC(=O)CNC(=O)c4ccn(C5(CF)COC5)c4)n3)n2)C[C@H](C)O1 [Compound 736] | < 0.01 µM | < 0.01 µM | – | – | –
13 | NCCn1ccc(C(=O)NCC(=O)Nc2nc(-c3cccc(-c4ccncc4)c3)cs2)c1 [Compound 38, 1-(2-aminoethyl)-N-(2-oxo-2-((4-(3-(pyridin-4-yl)phenyl)thiazol-2-yl)amino)ethyl)-1H-pyrrole-3-carboxamide] | – | – | > 0.1 µM | > 0.1 µM | –
14 | C[C@@H]1CN(c2cncc(-c3csc(NC(=O)CNC(=O)c4ccn(S(C)(=O)=O)c4)n3)n2)C[C@H](C)O1 [Compound 693] | > 0.01 µM | < 0.01 µM | – | – | –
15 | Cn1ncc(-c2cccc(-c3csc(NC(=O)CNC(=O)c4ccn(C5(C)COC5)c4)n3)n2)n1 [Compound 470] | > 0.1 µM | > 0.01 µM | – | – | –
16 | CC1(O)CN(c2cccc(-c3csc(NC(=O)CNC(=O)c4ccn(S(C)(=O)=O)c4)n3)c2)C1 [Compound 179] | – | – | > 0.01 µM | > 0.01 µM | –
17 | CS(=O)(=O)n1ccc(C(=O)NCC(=O)Nc2nc(-c3cccc(C4CCCOC4)c3)cs2)c1 (stereo not drawn) [Compound 776, 1-methylsulfonyl-N-[2-oxo-2-[[4-(3-tetrahydropyran-3-ylphenyl)thiazol-2-yl]amino]ethyl]pyrrole-3-carboxamide] | > 0.01 µM | > 0.01 µM | – | – | –
18 | CC(C)(C)n1ccc(C(=O)NCC(=O)Nc2nc(-c3cccc(N4CCC(F)(F)C4)n3)cs2)c1 [Compound 679] | > 0.01 µM | > 0.01 µM | – | – | –
19 | N#CC1(n2ccc(C(=O)NCC(=O)Nc3nc(-c4cccc(N5CCC5)c4)cs3)c2)COC1 [Compound 601] | > 0.01 µM | < 0.01 µM | – | – | –
20 | CS(=O)(=O)n1ccc(C(=O)NCC(=O)Nc2nc(-c3ccc4c(c3)OCC4)cs2)c1 [Compound 309] | – | – | > 0.01 µM | > 0.01 µM | –
21 | Cn1ccc2ccc(-c3csc(NC(=O)CNC(=O)c4ccn(S(C)(=O)=O)c4)n3)cc2c1=O [Compound 112, N-(2-((4-(2-methyl-1-oxo-1,2-dihydroisoquinolin-7-yl)thiazol-2-yl)amino)-2-oxoethyl)-1-(methylsulfonyl)-1H-pyrrole-3-carboxamide] | – | – | < 0.01 µM | < 0.01 µM | –
22 | CO[C@@H]1CCCN(c2cccc(-c3csc(NC(=O)CNC(=O)c4ccn(C(C)(C)C)c4)n3)c2)C1 [Compound 97, (R)-1-(tert-butyl)-N-(2-((4-(3-(3-methoxypiperidin-1-yl)phenyl)thiazol-2-yl)amino)-2-oxoethyl)-1H-pyrrole-3-carboxamide] | – | – | > 0.1 µM | > 0.1 µM | –
23 | CC(C)(C)c1cnc(C(=O)NCC(=O)Nc2nc(-c3cccc(N4CCC4)c3)cs2)s1 [Compound 820] | – | – | – | – | IC50 (BRG-1; read-out: BRG1 IP50): > 0.1 µM; IC50 (BRM; read-out: BRM IP50): > 0.1 µM
24 | CO[C@H]1C[C@H](c2ccc(-c3csc(NC(=O)CNC(=O)c4ccn(S(C)(=O)=O)c4)n3)cc2)C1 [Compound 531] | > 0.01 µM | > 0.01 µM | – | – | –
